Reference: EP0335637A2, “Nerve growth factor peptides” (THE REGENTS OF THE UNIVERSITY OF CALIFORNIA, priority 1988, dated 1989)
Where a SMILES comes first, the peptide text is derived from it.

Experiments:
[1] = test system: embryologic day 10 dorsal root ganglia neurons; experiment: NGF-independent neurite outgrowth in response to CNTF (nonspecific toxicity check); assay type: cell-based, chick; conditions: C5 up to 2.6p moles/ml (Figure 3)
Description: Potential nonspecific toxicity of peptide C5 (KGKE) was investigated with embryologic day 10 dorsal root ganglia neurons which also extend neurites in the presence of ciliary neurotrophic factor (CNTF). The effect of peptide C5 on NGF-independent neurite outgrowth was assessed.

[2] = Resistance to proteolysis during cell culture (HPLC recovery); assay type: in vitro ADME; conditions: after 24 hr in culture; 2.0 µmole/ml peptide, 100 pg/ml NGF and cells
Description: The resistance of peptide C5 to proteolytic cleavage during cell culture was assessed. Quadruplicate wells were prepared each containing 2.Oµ mole/ml of peptide in culture medium, 100 pg/ml NGF and cells as described above. After 24 hr in culture, 320 ul (4 wells x 80 ul) of culture medium were collected. Fresh culture medium containing 2.0 µmole/ml of peptide was also prepared. Both samples of peptide-containing medium were filtered through a Centricon membrane (Amicon, Bedford) with a molecular weight cutoff of 10,000. 250 µl of filtrate was loaded onto a C18 uBondapak analytic HPLC column and run under the same conditions described above for peptide purification. The quantity of peptides in fresh compared to post-culture medium was determined by integration of their absorbance peaks. After 24 hr in culture, more than 80-85% of the initial quantity of peptide C5 was recovered.

initial quantity of peptide recovered [2]: 80-85%
Structure (SMILES): NCCCC[C@H](NC(=O)CNC(=O)[C@@H](N)CCCCN)C(=O)N[C@@H](CCC(=O)O)C(N)=O [C5, KGKE] (H-KGKE-NH2)
effect on number of neurons bearing neurites in response to CNTF [1]: no detectable effect
